Source: paper PMC11594916, “In Vitro Cell Model Investigation of Alpha-Synuclein Aggregate Morphology Using Spectroscopic Imaging” (International Journal of Molecular Sciences, 2024)

Molecular target: T1, alpha-synuclein (αsyn) pre-formed fibrils (Homo sapiens, UniProt P37840)
T1 construct: gene SNCA; Full-length wildtype human αsyn, pre-formed amyloid fibrils (PFFs)
Test: fluorescence titration of h-FTAA with […] recombinant fibrils, simulated binding curve; lifetime imaging (FLIM)

Kd: < 100 nM
Compound: O=C(O)Cc1cc(-c2ccc(-c3ccc(C(=O)O)s3)s2)sc1-c1ccc(-c2sc(-c3ccc(-c4ccc(C(=O)O)s4)s3)cc2CC(=O)O)s1 [h-FTAA]
